Laboratory results from US20140161722A1, “USE OF PYRIMIDINE DERIVATIVES FOR THE TREATMENT OF EGFR DEPENDENT DISEASES OR DISEASES THAT HAVE ACQUIRED RESISTANCE TO AGENTS THAT TARGET EGFR FAMILY MEMBERS” (priority 2008, published 2014).

Tested on: EGFR inhibitor resistant NSCLC cell line NCI-H1975
Experiment: in vivo antitumor activity against s.c. NCI-H1975 tumors in athymic mice
Description: Female Harlan athymic mice (n=6), bearing s.c NCI-H1975 tumors are treated p.o. with the PI3K inhibitor Compound A at 50 mg/kg every day for the duration of the treatment. * p<0.05 (Dunnet's vs controls).
Non small cell lung carcinoma cell lines with EGFR mutant forms, but refractory to EGFR inhibition therapy, are valuable models to test the sensitivity of PI3K inhibitors like the compounds of formula I in such genetic background. The NCI-H1975 cell line is such a model as is highly tumorigenic in vivo. Moreover, it contains HER1 bearing the T790M gatekeeper mutation that renders the kinase resistant to catalytic inhibition by compounds such as gefitinib. The in vivo antitumor activity of PI3K inhibitors like the compounds of formula I is tested against this EGFR driven and EGFR tyrosine kinase inhibitor resistant tumor model (FIG. 1).

Nc1cc(C(F)(F)F)c(-c2cc(N3CCOCC3)nc(N3CCOCC3)n2)cn1 [Compound A, 5-(2,6-di-morpholin-4-yl-pyrimidin-4-yl)-4-trifluoromethyl-pyridin-2-ylamine]
antitumor activity (tumor growth) (female Harlan athymic mice, s.c. NCI-H1975 tumors (HER1 T790M), 50 mg/kg p.o. every day, p<0.05 Dunnet's vs controls (FIG. 1)): in vivo tumor growth inhibition | mean body weight, control vs treatment group (mice bearing s.c. NCI-H1975 tumors, 50 mg/kg p.o. every day (FIG. 2)): no statistically significant difference in body weight | tolerability (mouse, in vivo, 50 mg/kg): well tolerated
